# Source: BindingDB's records for doi:10.7270/Q2ZW1JC6 (Nmmlsc, 2016)
# Molecular target: Ras-related protein Rab-2A (Canis lupus familiaris, UniProt P61105)
# Assay: Rab2A fluorescent GTP competition potency – biochemical, pyrazoline series, Bodipy-FL-GTP, flow cytometry, multiplex, SAR follow-up (AID 2045)
# Settings: not given
# Sequence of Ras-related protein Rab-2A (P61105 whole entry): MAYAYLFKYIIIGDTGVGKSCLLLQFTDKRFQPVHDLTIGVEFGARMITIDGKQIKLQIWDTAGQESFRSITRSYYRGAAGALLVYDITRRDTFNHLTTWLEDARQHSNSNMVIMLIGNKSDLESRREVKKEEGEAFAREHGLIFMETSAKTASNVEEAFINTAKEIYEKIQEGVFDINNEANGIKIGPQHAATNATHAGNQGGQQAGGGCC
row,SMILES,EC50 [µM]
1,COc1ccc(-c2cc(-c3ccccc3)nn2-c2ccc(S(N)(=O)=O)cc2)cc1 [4-[5-(4-methoxyphenyl)-3-phenylpyrazol-1-yl]benzenesulfonamide],> 30
2,"COc1ccc(C2CC(C3CCCCC3)=NN2c2ccc(S(N)(=O)=O)cc2)cc1 (stereo not drawn) [4-[5-cyclohexyl-3-(4-methoxyphenyl)-3,4-dihydropyrazol-2-yl]benzenesulfonamide]",> 30
3,"O=S(=O)(c1ccc(N2N=C(c3ccc(Br)cc3)CC2c2ccccc2)cc1)C(F)F (stereo not drawn) [5-(4-bromophenyl)-2-[4-(difluoromethylsulfonyl)phenyl]-3-phenyl-3,4-dihydropyrazole]",> 30
4,"FC(F)(F)c1ccccc1C1CC(c2ccc(Br)cc2)=NN1c1ccccc1 (stereo not drawn) [5-(4-bromophenyl)-2-phenyl-3-[2-(trifluoromethyl)phenyl]-3,4-dihydropyrazole]",> 30
5,"O=[N+]([O-])c1cccc(C2C[C-](c3ccc(F)cc3)N=[N+]2c2ccccc2)c1 (stereo not drawn) [5-(4-fluorophenyl)-3-(3-nitrophenyl)-2-phenyl-3,4-dihydropyrazole]",> 30
6,Cc1ccc(-c2cc(C(F)(F)F)nn2-c2ccc(S(N)(=O)=O)cc2)cc1 [Celecoxib],> 30
7,COc1ccc(C2CC(c3ccc(N(C)C)cc3)=NN2c2ccc(S(N)(=O)=O)cc2)cc1 (stereo not drawn) [KUC103422N],> 30
8,COc1ccc(C2CC(c3cccs3)=NN2c2ccc(S(N)(=O)=O)cc2)cc1 (stereo not drawn) [KUC103438N],> 30
9,NS(=O)(=O)c1ccc(N2N=C(c3ccccc3)CC2c2ccccc2Cl)cc1 (stereo not drawn) [KUC103446N],> 30
10,COc1ccc(C2CC(C(C)(C)C)=NN2c2ccc(S(N)(=O)=O)cc2)cc1 (stereo not drawn) [KUC103450N],> 30
11,COc1ccc(C2CC(c3ccccc3C(F)(F)F)=NN2c2ccc(S(N)(=O)=O)cc2)cc1 (stereo not drawn) [KUC103474N],> 30
12,"Cc1ccccc1N1N=C(c2ccccc2)CC1c1ccc(N(C)C)cc1 (stereo not drawn) [N,N-dimethyl-4-[2-(2-methylphenyl)-5-phenyl-3,4-dihydropyrazol-3-yl]aniline]",> 30
13,COc1ccc(C2CC(c3ccccc3)=NN2c2ccc(S(N)(=O)=O)cc2)cc1OC (stereo not drawn) [UNM-0000305823],> 30
14,COc1ccc(C2CC(c3ccc(Br)cc3)=NN2c2ccccc2Cl)cc1 (stereo not drawn) [UNM-0000305832],> 30
15,COc1ccc(C2=NN(c3ccccc3)C(c3ccc(Cl)cc3)C2)cc1 (stereo not drawn) [UNM-0000305833],> 30
16,O=S(=O)(O)c1ccc(N2N=C(c3ccccc3)CC2c2ccccc2)cc1 (stereo not drawn) [UNM-0000305834],> 30
17,Cc1cccc(N2N=C(c3ccccc3)CC2c2ccccc2)c1 (stereo not drawn) [UNM-0000305835],> 30
18,O=[N+]([O-])c1ccc([N+]2=N[C-](c3ccccc3)CC2c2ccc(O)cc2)cc1 (stereo not drawn) [UNM-0000305838],> 30
19,CN(C)c1ccc(C2CC(c3ccc(Br)cc3)=NN2c2ccccc2)cc1 (stereo not drawn) [UNM-0000305846],> 30
20,CN(C)c1ccc(C2CC(c3ccc(Cl)cc3)=NN2c2ccccc2)cc1 (stereo not drawn) [UNM-0000305847],> 30
21,COc1ccc(C2=NN(c3ccccc3)C(c3ccc(OC)c(OC)c3C(=O)O)C2)cc1 (stereo not drawn) [UNM-0000305848],> 30
22,Cc1ccccc1[N+]1=N[C-](c2ccccc2)CC1c1cccc([N+](=O)[O-])c1 (stereo not drawn) [UNM-0000305854],> 30
23,COc1ccccc1N1N=C(c2ccccc2)CC1c1ccccc1 (stereo not drawn) [UNM-0000305855],> 30
24,O=[N+]([O-])c1cccc(C2C[C-](c3ccccc3)N=[N+]2c2ccccc2)c1 (stereo not drawn) [UNM-0000305857],> 30
25,COc1ccc(C2CC(c3ccc(Cl)cc3)=NN2c2ccccc2)cc1OC (stereo not drawn) [UNM-0000305858],> 30
26,FC(F)(F)c1cccc(N2N=C(c3ccc(Cl)cc3)CC2c2ccccc2Cl)c1 (stereo not drawn) [UNM-0000305859],> 30
27,COc1ccc(C2=NN(c3ccccc3F)C(c3ccc(F)cc3)C2)cc1 (stereo not drawn) [UNM-0000305860],> 30

# Same assay, conditions: inactive by the depositor's call
row,SMILES,EC50 [µM]
1,"COc1ccc(C2CC(c3ccc(F)cc3)=NN2c2ccc(S(N)(=O)=O)cc2)cc1 (stereo not drawn) [4-[5-(4-fluorophenyl)-3-(4-methoxyphenyl)-3,4-dihydropyrazol-2-yl]benzenesulfonamide]",0.015
